Assays:
velvetleaf = assay: Test B pre/postemergence velvetleaf; type: in vivo, Abutilon theophrasti; conditions: for Plant response rating, Velvetleaf: scale of 0 to 10 where 0 is no effect and 10 is complete control
Procedure, shortened: (§1)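 Response is a visual 0-to-10 score relative to untreated plants, where 0 means no effect and 10 means complete control, taken twelve to sixteen days after application. Treatments went onto soil at planting and onto foliage of 1- to 4-leaf plants, using a surfactant-containing non-phytotoxic solvent.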

rice = assay: Test B flood test rice; type: in vivo, Oryza sativa
Procedure, shortened: (§2)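 Read-out is a visual response score from 0 (no effect) to 10 (complete control), assigned by comparison with untreated controls. Treatment was applied at the 2-leaf stage, and plants stayed in the greenhouse for twelve to sixteen days before scoring.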

blackgrass = assay: Test B pre/postemergence blackgrass; type: in vivo, Alopecurus myosuroides
Procedure, shortened: as §1

duck salad = assay: Test B flood test duck salad; type: in vivo, Heteranthera limosa
Procedure, shortened: as §2

sugar beet = assay: Test B pre/postemergence sugar beet; type: in vivo, Beta vulgaris; conditions: for Plant response rating, Sugarbeets: scale of 0 to 10 where 0 is no effect and 10 is complete control
Procedure, shortened: as §1

wheat = assay: Test B pre/postemergence wheat; type: in vivo, Triticum aestivum; conditions: for Plant response rating, Wheat: scale of 0 to 10 where 0 is no effect and 10 is complete control
Procedure, shortened: as §1

giant foxtail = assay: Test B pre/postemergence giant foxtail; type: in vivo, Setaria faberii
Procedure, shortened: as §1

pigweed = assay: Test B pre/postemergence pigweed; type: in vivo, Amaranthus retroflexus; conditions: for Plant response rating, Redroot pigweed: scale of 0 to 10 where 0 is no effect and 10 is complete control
Procedure, shortened: as §1

surinam grass = assay: Test B pre/postemergence surinam grass; type: in vivo, Brachiaria decumbens
Procedure, shortened: as §1

wild oat = assay: Test B pre/postemergence wild oat; type: in vivo, Avena fatua; conditions: for Plant response rating, Wild oats: scale of 0 to 10 where 0 is no effect and 10 is complete control
Procedure, shortened: as §1

corn = assay: Test B pre/postemergence corn; type: in vivo, Zea mays
Procedure, shortened: as §1

rape = assay: Test B pre/postemergence rape; type: in vivo, Brassica napus; conditions: for Plant response rating, Rape: scale of 0 to 10 where 0 is no effect and 10 is complete control
Procedure, shortened: as §1

crabgrass = assay: Test B pre/postemergence crabgrass; type: in vivo, Digitaria sanguinalis
Procedure, shortened: as §1

bamyardgrass = assay: Test B flood test barnyardgrass; type: in vivo, Echinochloa crus-galli
Procedure, shortened: as §2

cocklebur = assay: Test B pre/postemergence cocklebur; type: in vivo, Xanthium strumarium
Procedure, shortened: as §1

morningglory = assay: Test B pre/postemergence morningglory; type: in vivo, Ipomoea hederacea; conditions: for Plant response rating, Morningglory: scale of 0 to 10 where 0 is no effect and 10 is complete control
Procedure, shortened: as §1

smallflower flatsedge = assay: Test B flood test smallflower flatsedge; type: in vivo, Cyperus difformis
Procedure, shortened: as §2

purple nutsedge = assay: Test B pre/postemergence purple nutsedge; type: in vivo, Cyperus rotundus; conditions: for Plant response rating, Nutsedge: scale of 0 to 10 where 0 is no effect and 10 is complete control
Procedure, shortened: as §1

soybean = assay: Test B pre/postemergence soybean; type: in vivo, Glycine max; conditions: for Plant response rating, Soybean: scale of 0 to 10 where 0 is no effect and 10 is complete control
Procedure, shortened: as §1

[1] = Postemergence, Rate 250 g/ha, scale 0 to 10
[2] = Preemergence, Rate 250 g/ha, scale 0 to 10, 0 is no effect, 10 is complete control
[3] = Preemergence, Rate 500 g/ha, scale 0 to 10, 0 is no effect, 10 is complete control
[4] = Rate 62 g/ha, Postemergence, scale 0 to 10, 0 no effect, 10 complete control
[5] = Rate 125 g/ha, Postemergence, scale 0 to 10, 0 is no effect, 10 is complete control
[6] = Rate 62 g/ha, flood test species, Pre-emergence, visual evaluation after twelve to sixteen days
[7] = Rate 125 g/ha, under heading Pre-emergence, flood test species, visual evaluation after twelve to sixteen days
[8] = Rate 250 g/ha, Pre-emergence (flood test species), scale 0 to 10, 0 is no effect, 10 is complete control
[9] = Rate 500 g/ha, Pre-emergence, flood test species, scale 0 to 10 (0 no effect, 10 complete control)
[10] = Postemergence, Rate 500 g/ha, scale of 0 to 10 where 0 is no effect and 10 is complete control
[11] = Preemergence, Rate 62 g/ha, scale of 0 to 10 where 0 is no effect and 10 is complete control
[12] = Preemergence, Rate 125 g/ha, scale of 0 to 10 where 0 is no effect and 10 is complete control

CC(C)N(C(=O)n1oc(=O)n(C(C)CCl)c1=O)c1ccc(Cl)cc1 (stereo not drawn) [Compound 456]
4: Blackgrass plant response rating (blackgrass; [1]) | Blackgrass plant response rating (blackgrass; [4]) | Blackgrass plant response rating (blackgrass; [5]) | Crabgrass plant response rating (crabgrass; [1]) | Crabgrass plant response rating (crabgrass; [4])
10: Plant response rating, Giant foxtail (giant foxtail; [12]) | Giant foxtail plant response rating (giant foxtail; [2]) | Giant foxtail plant response rating (giant foxtail; [3])
6: Blackgrass plant response rating (blackgrass; [3]) | Plant response rating, Crabgrass (crabgrass; [11]) | Plant response rating, Crabgrass (crabgrass; [12])
2: Velvetleaf plant response rating (velvetleaf; [3]) | Plant response rating, Blackgrass (blackgrass; [12]) | Plant response rating, Sugarbeets (sugar beet; Preemergence, Rate 125 g/ha) | Sugarbeets plant response rating (sugar beet; [2]) | Giant foxtail plant response rating (giant foxtail; [4]) | Giant foxtail plant response rating (giant foxtail; [5]) | Plant response rating, Redroot pigweed (pigweed; Preemergence, Rate 125 g/ha) | B. signalgrass plant response rating (surinam grass; [10]) | B. signalgrass plant response rating (surinam grass; [3]) | Wild oats plant response rating (wild oat; [2]) | Cocklebur plant response rating (cocklebur; [10]) | Soybean plant response rating (soybean; [1])
7: Crabgrass plant response rating (crabgrass; [10])
3: Blackgrass plant response rating (blackgrass; [2]) | Sugarbeets plant response rating (sugar beet; [3]) | Giant foxtail plant response rating (giant foxtail; [1]) | Redroot pigweed plant response rating (pigweed; [1]) | Redroot pigweed plant response rating (pigweed; [2]) | Wild oats plant response rating (wild oat; [3]) | Morningglory plant response rating (morningglory; [2]) | Morningglory plant response rating (morningglory; [3]) | Morningglory plant response rating (morningglory; [4]) | Morningglory plant response rating (morningglory; [5]) | Soybean plant response rating (soybean; [5])
5: Plant response rating, Giant foxtail (giant foxtail; [11]) | Redroot pigweed plant response rating (pigweed; [3]) | Morningglory plant response rating (morningglory; [1])
9: Crabgrass plant response rating (crabgrass; [3])
0: Velvetleaf plant response rating (velvetleaf; [1]) | Plant response rating, Velvetleaf (velvetleaf; Preemergence, Rate 62 g/ha) | Plant response rating, Velvetleaf (velvetleaf; Preemergence, Rate 125 g/ha) | Velvetleaf plant response rating (velvetleaf; [4]) | Velvetleaf plant response rating (velvetleaf; [5]) | Plant response rating, Rice (0 to 10 scale, 0 is no effect, 10 is complete control) (rice; [6]) | Rice plant response rating (0 to 10 scale, 0 is no effect, 10 is complete control) (rice; [7]) | Rice plant response rating (rice; [8]) | Rice plant response rating (rice; [9]) | Plant response rating, Blackgrass (blackgrass; [11]) | Plant response rating, Ducksalad (0 to 10 scale, 0 is no effect, 10 is complete control) (duck salad; [6]) | Ducksalad plant response rating (0 to 10 scale, 0 is no effect, 10 is complete control) (duck salad; [7]) | Ducksalad plant response rating (duck salad; [8]) | Ducksalad plant response rating (duck salad; [9]) | Sugarbeets plant response rating (sugar beet; [1]) | Plant response rating, Sugarbeets (sugar beet; Preemergence, Rate 62 g/ha) | Sugarbeets plant response rating (sugar beet; [4]) | Sugarbeets plant response rating (sugar beet; [5]) | Wheat plant response rating (wheat; [1]) | Plant response rating, Wheat (wheat; Preemergence, Rate 62 g/ha) | Plant response rating, Wheat (wheat; Preemergence, Rate 125 g/ha) | Wheat plant response rating (wheat; [2]) | Wheat plant response rating (wheat; [3]) | Wheat plant response rating (wheat; [4]) | Wheat plant response rating (wheat; [5]) | Plant response rating, Redroot pigweed (pigweed; Preemergence, Rate 62 g/ha) | Redroot pigweed plant response rating (pigweed; [4]) | Redroot pigweed plant response rating (pigweed; [5]) | B. signalgrass plant response rating (surinam grass; Postemergence, Rate 250 g/ha, scale 0 to 10, 0 no effect, 10 complete control) | Plant response rating, B. signalgrass (surinam grass; [11]) | Plant response rating, B. signalgrass (surinam grass; [12]) | B. signalgrass plant response rating (surinam grass; [2]) | B. signalgrass plant response rating (surinam grass; [4]) | B. signalgrass plant response rating (surinam grass; [5]) | Wild oats plant response rating (wild oat; [1]) | Plant response rating, Wild oats (wild oat; Preemergence, Rate 62 g/ha) | Plant response rating, Wild oats (wild oat; Preemergence, Rate 125 g/ha) | Wild oats plant response rating (wild oat; [4]) | Wild oats plant response rating (wild oat; [5]) | Corn plant response rating (corn; [1]) | Corn plant response rating (corn; [10]) | Plant response rating, Corn (corn; [11]) | Plant response rating, Corn (corn; [12]) | Corn plant response rating (corn; [2]) | Corn plant response rating (corn; [3]) | Corn plant response rating (corn; [4]) | Corn plant response rating (corn; [5]) | Rape plant response rating (rape; [1]) | Plant response rating, Rape (rape; Preemergence, Rate 62 g/ha) | Plant response rating, Rape (rape; Preemergence, Rate 125 g/ha) | Rape plant response rating (rape; [2]) | Rape plant response rating (rape; [3]) | Rape plant response rating (rape; [4]) | Rape plant response rating (rape; [5]) | Plant response rating, Barnyardgrass (0 to 10 scale, 0 is no effect, 10 is complete control) (bamyardgrass; [6]) | Barnyardgrass plant response rating (0 to 10 scale, 0 is no effect, 10 is complete control) (bamyardgrass; [7]) | Barnyardgrass plant response rating (bamyardgrass; [8]) | Barnyardgrass plant response rating (bamyardgrass; [9]) | Cocklebur plant response rating (cocklebur; [1]) | Plant response rating, Cocklebur (cocklebur; [11]) | Plant response rating, Cocklebur (cocklebur; [12]) | Cocklebur plant response rating (cocklebur; [2]) | Cocklebur plant response rating (cocklebur; [3]) | Cocklebur plant response rating (cocklebur; [4]) | Cocklebur plant response rating (cocklebur; [5]) | Plant response rating, Morningglory (morningglory; Preemergence, Rate 62 g/ha) | Plant response rating, Morningglory (morningglory; Preemergence, Rate 125 g/ha) | Plant response rating, S. Flatsedge (0 to 10 scale, 0 is no effect, 10 is complete control) (smallflower flatsedge; [6]) | S. Flatsedge plant response rating (0 to 10 scale, 0 is no effect, 10 is complete control) (smallflower flatsedge; [7]) | S. Flatsedge plant response rating (smallflower flatsedge; [8]) | S. Flatsedge plant response rating (smallflower flatsedge; [9]) | Nutsedge plant response rating (purple nutsedge; [1]) | Plant response rating, Nutsedge (purple nutsedge; Preemergence, Rate 62 g/ha) | Plant response rating, Nutsedge (purple nutsedge; Preemergence, Rate 125 g/ha) | Nutsedge plant response rating (purple nutsedge; [2]) | Nutsedge plant response rating (purple nutsedge; [3]) | Nutsedge plant response rating (purple nutsedge; [4]) | Nutsedge plant response rating (purple nutsedge; [5]) | Plant response rating, Soybean (soybean; Preemergence, Rate 62 g/ha) | Plant response rating, Soybean (soybean; Preemergence, Rate 125 g/ha) | Soybean plant response rating (soybean; [2]) | Soybean plant response rating (soybean; [3])
1: Velvetleaf plant response rating (velvetleaf; [2]) | Soybean plant response rating (soybean; [4])
8: Blackgrass plant response rating (blackgrass; [10]) | Giant foxtail plant response rating (giant foxtail; [10]) | Crabgrass plant response rating (crabgrass; [2])

Reference: patent US6737383B1, “Herbicidal oxadiazolidines” (priority 1999, dated 2004)
